Laboratory results reported in patent US8372840B2, “Potassium channel blockers” (Xention Limited, priority 2008, dated 2013).

Experiments:
human Kv1.3 = target: T1, human Kv1.3 (Homo sapiens, UniProt P22001); assay: Kv1.3 Autopatch Electrophysiology (whole cell patch-clamp, stably transfected CHO cells); type: cell-based; settings: compound 1 μM, step to +30 mV for 500 ms, inhibition of total charge relative to control, room temperature
T1 construct: expressed in transfected cells; host or cells: stably transfected cells grown in medium for CHO cells
Description: Cells stably transfected with cDNA for human Kv1.3 (in pcDNA3.1) were grown in Ex-cell 302 serum-free medium for CHO cells, supplemented with 10 μl/ml [100×] glutamine, 500 μg/ml G418 ([…]), and 1% HT supplement (50×, hypoxanthine and thymidine). Compounds were tested on these cells using the AutoPatch technology in whole cell mode.
The external bathing solution contained (in mM): 150 NaCl, 10 KCl, 1 MgCl2, 3 CaCl2, 10 HEPES, pH 7.4 with NaOH. Patch pipettes were filled with an electrode solution of composition (in mM): 100 K-Gluconate, 20 KCl, 1 MgCl2, 1 CaCl2, 10 HEPES, 11 EGTA, 5 ATP-Na2, 2 Glutathione pH 7.2 with KOH.
Compounds were dissolved in DMSO (100%) and made up in the external bather at a concentration of 1 μM immediately prior to use. All experiments were conducted at room temperature.
A cell suspension (10 ml), with a density of 6×10^6 cells, was aliquoted into a 15 ml centrifuge tube and stored at 4° C. before use. Prior to use a tube was taken and centrifuged at 1000 rpm for 4 mins at room temperature. The supernatant was then discarded, leaving a cell pellet at the bottom of the tube. The pellet was then resuspended using 1 ml of cold (4° C.), filtered (0.22 μm), 0.05% BSA/bather solution (0.05 g BSA/100 ml bather). The bottom of the tube was manually agitated followed by gentle tituration. The cell suspension was then placed in the AutoPatch™ temperature controlled cell-hotel at 14° C. and regularly titurated.
A length of Teflon capillary tubing was dipped into the cell suspension solution, and a column of fluid was taken up by negative pressure. The column of fluid was in electrically connectivity with a Ag/AgCl reference electrode. Borosilicate glass patch pipettes (from 1.5 mm OD, thin-walled filamented, GC150-TF capillary glass, Harvard) were pulled using a DMZ pipette puller (Zeitz Instruments), and were back-filled using the internal pipette solution, being careful that no bubbles remained at the tip or in the body of the pipette. Patch pipettes typically had resistances of 2.5-3.5 MΩ. Once filled, the pipette tip and a proportion of the shaft (˜15 mm) were dipped into Sigmacote (Sigma). The recording pipettes were placed in a multiwell array and mounted on the AutoPatch™ machine. Automated patch-clamping and drug-application was initiated by the operator, but thereafter AutoPatch.exe continued the experiment providing that pre-set conditions and criteria were satisfied.
Whole cell patch-clamp recordings were made using the AutoPatch™ rig, which incorporated an EPC9 or EPC10 amplifier (HEKA, Germany) under control of Pulse software (v8.54 or v8.76, HEKA, Germany), a cell applicator, automated drug application system (DAS), valve controller (VF1) and a suction device all at room temperature. This equipment was completely under the control of AutoPatch.exe and operator intervention was only made when there was a requirement to refill the bather reservoirs or to prevent the loss of a cell due to a technical error.
Qualification stages prior to perfusion and drug application ensured that the observed current met the criteria for the experiment. Cells were continuously perfused with external solution at a flow rate of ˜2 ml/minute.
Electrophysiology voltage-step protocols and analysis of data was performed as follows. Data were sampled at 5 kHz, and filtered with a −3 dB bandwidth of 2.5 kHz. Cells were held at a voltage of −80 mV. Currents were evoked by a voltage step to +30 mV for 500 ms in duration applied every 15 s. Online analysis of the hKv1.3 current during the application of compounds was performed by the Pulse (v8.54 or v8.76, HEKA, Germany), Excel (Microsoft, USA) and AutoPatch™ software, with the total charge measured during the whole of voltage step Inhibition of charge movement in the presence of drug was calculated relative to control.

hKv1.5 = hKv1.5 (Homo sapiens, UniProt P22460); assay: Kv1.5 Autopatch Electrophysiology (whole cell patch-clamp); type: cell-based; settings: compound 1 μM, step to 0 mV for 1000 ms, total charge, room temperature (22-24° C.); for inhibition at 1 µM: read-out: hKv1.5 % inh.
Description: The external bathing solution contained (in mM): 150 NaCl, 10 KCl, […], 3 MgCl2, 1 CaCl2, 10 HEPES, pH 7.4. Patch pipettes were filled with an electrode solution of composition (in mM): 160 KCl, 0.5 MgCl2, 10 HEPES, 1 EGTA, pH 7.4 with KOH.
Compounds were dissolved in DMSO (100%) and made up in the external bather at a concentration of 1 μM. All experiments were conducted at room temperature (22-24° C.).
A cell suspension (10 ml), with a density of 100,000 cells/ml, was aliquoted into a 15 ml centrifuge tube and transferred to an incubator (37° C., 5% CO2) for approximately one hour before use. Following 60 min incubation, a tube was taken and centrifuged at 1000 rpm for 4 mins at room temperature. 9.5 ml supernatant was thence discarded, leaving a cell pellet at the bottom of the tube. The pellet was then resuspended using 100 μl of cold (4° C.), filtered (0.22 μm), 0.2% BSA/bather solution (0.02 g BSA/10 ml bather). The bottom of the tube was manually agitated gently until the solution became cloudy with cells. The 100 μl cell resuspension solution was then stored on the bench at 4° C. (using a Peltier-based temperature control device) until used.
A length of capillary glass (1B150E-4, WPI) was dipped into the cell suspension solution, such that ˜3 cm column of fluid was taken up by capillary action. A Ag/AgCl wire was dropped into the non-dipped end of the capillary also. The outside of the solution-filled end of the capillary was then dried and the capillary was loaded into the AutoPatch™
Borosilicate glass patch pipettes (from 1.5 mm OD, thin-walled filamented, GC150-TF capillary glass, Harvard) were pulled using a DMZ pipette puller (Zeitz Instruments), and were back-filled using the internal pipette solution, being careful that no bubbles remain at the tip or in the body of the pipette. Patch pipettes typically had resistances of 2.3-3.5 MΩ. Once filled, the pipette tip and a proportion of the shaft (˜15 mm) were dipped into Sigmacote (Sigma). The recording pipette was then loaded into the AutoPatch™. Automated patch-clamping was initiated by the operator, but thereafter AutoPatch.exe continued the experiment providing that pre-set conditions and criteria were satisfied.
Whole cell patch-clamp recordings were made using the AutoPatch™ rig, which incorporated an EPC9 amplifier (HEKA, Germany) under control of Pulse software (v8.54, HEKA, Germany), a motion controller with 2 translators (Newport, UK), valve controller (VF1) and a c-level suction device all at room temperature (22-24° C.). This equipment was completely under the control of AutoPatch.exe and operator intervention was only made when there was a requirement to refill the drug reservoirs or to prevent the loss of a cell due to a technical error. Cells with an Rseries greater than 18 MΩ were discounted from the experiment.
Qualification stages prior to perfusion and drug application ensured that the observed current met the criteria for the experiment. Only those cells with an IK>500 pA were used for experiments. Cells were continuously perfused with external solution at a flow rate of 1.8-2 ml/minute. […] Online analysis of the hKv1.5 current during the application of compounds was performed by the AutoPatch™ software. Voltage-step protocols and analysis of data was performed as described for conventional electrophysiology.
Electrophysiology voltage-step protocols and analysis of data was performed as follows. Data was sampled at 5 kHz, and filtered with a −3 dB bandwidth of 2.5 kHz. Cells were held at a voltage of −80 mV. Currents were evoked to a voltage step for 1000 ms in duration at 0 mV every 5 s. Currents were analysed using Pulsefit software (v8.54, HEKA, Germany), with the total charge measured during the whole of the voltage step. All other plots were produced using Igor Pro (WaveMetrics).

T1 sequence (P22001 whole entry): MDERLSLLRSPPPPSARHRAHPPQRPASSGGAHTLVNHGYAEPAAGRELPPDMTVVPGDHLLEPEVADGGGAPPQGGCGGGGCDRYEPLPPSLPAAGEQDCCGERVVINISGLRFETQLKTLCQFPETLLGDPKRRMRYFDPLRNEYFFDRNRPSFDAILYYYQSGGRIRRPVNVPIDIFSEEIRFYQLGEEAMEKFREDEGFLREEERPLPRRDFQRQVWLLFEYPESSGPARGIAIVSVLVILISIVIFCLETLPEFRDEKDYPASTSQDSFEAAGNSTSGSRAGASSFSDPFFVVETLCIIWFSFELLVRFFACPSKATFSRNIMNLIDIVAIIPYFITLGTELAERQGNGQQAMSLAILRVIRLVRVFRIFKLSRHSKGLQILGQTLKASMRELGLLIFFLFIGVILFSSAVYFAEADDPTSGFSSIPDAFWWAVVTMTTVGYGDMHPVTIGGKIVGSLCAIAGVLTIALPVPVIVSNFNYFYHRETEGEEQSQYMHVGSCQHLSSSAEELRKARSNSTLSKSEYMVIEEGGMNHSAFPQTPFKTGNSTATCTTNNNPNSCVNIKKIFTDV
Chain of hKv1.5 (P22460 whole entry): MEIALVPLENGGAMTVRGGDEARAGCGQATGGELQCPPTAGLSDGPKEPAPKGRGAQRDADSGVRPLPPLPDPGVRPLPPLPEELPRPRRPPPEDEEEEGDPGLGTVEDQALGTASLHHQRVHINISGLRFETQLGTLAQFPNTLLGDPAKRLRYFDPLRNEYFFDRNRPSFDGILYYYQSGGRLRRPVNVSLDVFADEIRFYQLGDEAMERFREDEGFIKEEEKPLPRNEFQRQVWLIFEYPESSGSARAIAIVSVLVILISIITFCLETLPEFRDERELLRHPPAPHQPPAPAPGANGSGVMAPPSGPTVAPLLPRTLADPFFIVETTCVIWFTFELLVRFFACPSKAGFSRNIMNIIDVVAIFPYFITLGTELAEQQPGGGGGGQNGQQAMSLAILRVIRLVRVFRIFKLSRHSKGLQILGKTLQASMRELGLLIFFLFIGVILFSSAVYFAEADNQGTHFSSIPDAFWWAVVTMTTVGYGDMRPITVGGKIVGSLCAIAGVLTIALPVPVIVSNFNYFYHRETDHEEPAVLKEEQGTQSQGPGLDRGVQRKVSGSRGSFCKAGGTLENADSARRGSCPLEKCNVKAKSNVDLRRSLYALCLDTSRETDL

| inhibition at 1 µM (hKv1.5) | Compound | hKv1.5 % inh. (hKv1.5) | also measured |
| --- | --- | --- | --- |
| – | 1-Methyl-1H-imidazole-4-sulfonic acid benzyl-[3-(4-phenyl-piperazin-1-yl)-phenyl]-amide [Example 13] | – | hKv1.3 % inh. (human Kv1.3): 41% |
| – | 1-Methyl-1H-pyrazole-3-sulfonic acid (4-chloro-benzyl)-[4-fluoro-3-(2-oxo-pyrrolidin-1-yl)-phenyl]-amide [Example 37] | – | hKv1.3 % inh. (human Kv1.3): 53% |
| – | 1-Methyl-1H-pyrazole-3-sulfonic acid benzyl-[3-(2-oxo-pyrrolidin-1-yl)-phenyl]-amide [Example 39] | – | hKv1.3 % inh. (human Kv1.3): 74% |
| – | 1-Methyl-1H-pyrazole-4-sulfonic acid benzyl-[3-(2-oxo-pyrrolidin-1-yl)-phenyl]-amide [Example 24] | 41% | – |
| – | 2-Methyl-2H-pyrazole-3-sulfonic acid (4-chloro-benzyl)-[3-(2-oxo-pyrrolidin-1-yl)-phenyl]-amide [Example 26] | 43% | – |
| – | 3-Oxo-3,4-dihydro-2H-benzo[1,4]oxazine-6-sulfonic acid (4-chloro-benzyl)-[3-(2-oxo-pyrrolidin-1-yl)-phenyl]-amide [Example 29] | 72% | – |
| – | Cn1cnc(S(=O)(=O)N(Cc2ccc(Cl)cc2)c2ccc(F)c(N3CCCC3=O)c2)c1 [Example 4, 1-Methyl-1H-imidazole-4-sulfonic acid (4-chloro-benzyl)-[4-fluoro-3-(2-oxo-pyrrolidin-1-yl)-phenyl]-amide] | – | inhibition at 1 µM (human Kv1.3; CHO, read-out: hKv1.3 % inh.): 61% |
| 45% | O=C1COc2ccc(S(=O)(=O)N(Cc3ccccc3)c3cccc(N4CCCC4=O)c3)cc2N1 [Example 17, 3-Oxo-3,4-dihydro-2H-benzo[1,4]oxazine-6-sulfonic acid benzyl-[3-(2-oxo-pyrrolidin-1-yl)-phenyl]-amide] | – | – |
| 90% | N#Cc1cccc(S(=O)(=O)N(Cc2ccccc2)c2cccc(N3CCOCC3)c2)c1 [Example 20, N-Benzyl-3-cyano-N-(3-morpholin-4-yl-phenyl)-benzenesulfonamide] | – | – |
| 72% | CN1CCOc2cc(S(=O)(=O)N(Cc3ccccc3)c3cccc(N4CCOCC4)c3)ccc21 [Example 21, 4-Methyl-3,4-dihydro-2H-benzo[1,4]oxazine-7-sulfonic acid benzyl-(3-morpholin-4-yl-phenyl)-amide] | – | – |
| 39% | Cc1nc(S(=O)(=O)N(Cc2ccc(Cl)cc2)c2cccc(N3CCCC3=O)c2)cn1C [Example 25, 1,2-Dimethyl-1H-imidazole-4-sulfonic acid (4-chloro-benzyl)-[3-(2-oxo-pyrrolidin-1-yl)-phenyl]-amide] | – | – |
| 84% | CN1CCOc2cc(S(=O)(=O)N(Cc3ccc(Cl)cc3)c3cccc(N4CCCC4=O)c3)ccc21 [Example 27, 4-Methyl-3,4-dihydro-2H-benzo[1,4]oxazine-7-sulfonic acid (4-chloro-benzyl)-[3-(2-oxo-pyrrolidin-1-yl)-phenyl]-amide] | – | – |
| 49% | Cn1cc(S(=O)(=O)N(Cc2ccc(Cl)cc2)c2cccc(N3CCCC3=O)c2)cn1 [Example 28, 1-Methyl-1H-pyrazole-4-sulfonic acid (4-chloro-benzyl)-[3-(2-oxo-pyrrolidin-1-yl)-phenyl]-amide] | – | – |
| 47% | Cn1nccc1S(=O)(=O)N(Cc1ccc(Cl)cc1)c1cccc(N2CCOCC2)c1 [Example 31, 2-Methyl-2H-pyrazole-3-sulfonic acid (4-chloro-benzyl)-(3-morpholin-4-yl-phenyl)-amide] | – | – |
| 64% | CN1CCOc2cc(S(=O)(=O)N(Cc3ccc(Cl)cc3)c3cccc(N4CCOCC4)c3)ccc21 [Example 32, 4-Methyl-3,4-dihydro-2H-benzo[1,4]oxazine-7-sulfonic acid (4-chloro-benzyl)-(3-morpholin-4-yl-phenyl)-amide] | – | – |
| 58% | Cn1cc(S(=O)(=O)N(Cc2ccc(Cl)cc2)c2cccc(N3CCOCC3)c2)cn1 [Example 33, 1-Methyl-1H-pyrazole-4-sulfonic acid (4-chloro-benzyl)-(3-morpholin-4-yl-phenyl)-amide] | – | – |
| 68% | O=C1COc2ccc(S(=O)(=O)N(Cc3ccc(Cl)cc3)c3cccc(N4CCOCC4)c3)cc2N1 [Example 34, 3-Oxo-3,4-dihydro-2H-benzo[1,4]oxazine-6-sulfonic acid (4-chloro-benzyl)-(3-morpholin-4-yl-phenyl)-amide] | – | – |
| – | N-(4-Chloro-benzyl)-3-cyano-N-(3-morpholin-4-yl-phenyl)-benzenesulfonamide [Example 30] | 97% | – |
| – | N-Benzyl-3-cyano-N-[3-(2-oxo-pyrrolidin-1-yl)-phenyl]-benzenesulfonamide [Example 22] | 82% | – |
| – | Pyridine-3-sulfonic acid (4-chloro-benzyl)-(3-morpholin-4-yl-phenyl)-amide [Example 35] | 84% | – |
